{"source": "patent US20250346585A1", "about": "(Alexion Pharmaceuticals, Inc., priority 2022, published 2025)"}
{"biological_target": "Human complement C1s enzyme (Homo sapiens (Human), UniProt P09871)", "sequence (P09871 438-688 limits assumed)": "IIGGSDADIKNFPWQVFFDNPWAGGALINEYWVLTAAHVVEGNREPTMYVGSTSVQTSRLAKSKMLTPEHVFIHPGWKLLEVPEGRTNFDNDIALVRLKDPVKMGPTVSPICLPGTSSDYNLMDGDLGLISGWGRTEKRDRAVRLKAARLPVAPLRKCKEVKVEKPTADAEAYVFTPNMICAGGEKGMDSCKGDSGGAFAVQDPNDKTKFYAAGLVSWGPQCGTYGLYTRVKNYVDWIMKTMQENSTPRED", "sequence (P09871 16-437 partner limits assumed)": "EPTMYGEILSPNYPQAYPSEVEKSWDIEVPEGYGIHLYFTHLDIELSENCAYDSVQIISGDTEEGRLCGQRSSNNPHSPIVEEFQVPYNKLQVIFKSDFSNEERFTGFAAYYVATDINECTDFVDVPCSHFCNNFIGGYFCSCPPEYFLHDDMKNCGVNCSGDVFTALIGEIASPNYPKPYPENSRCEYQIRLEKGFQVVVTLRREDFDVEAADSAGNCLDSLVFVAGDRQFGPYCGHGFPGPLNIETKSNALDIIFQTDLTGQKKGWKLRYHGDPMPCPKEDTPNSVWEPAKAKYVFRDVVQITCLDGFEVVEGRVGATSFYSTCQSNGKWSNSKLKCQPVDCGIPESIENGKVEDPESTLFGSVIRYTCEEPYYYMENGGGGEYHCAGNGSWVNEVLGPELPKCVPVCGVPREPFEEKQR", "assay": "Human C1s enzyme assay", "type": "biochemical", "conditions": "Human C1s enzyme assay of Example 3; read-out: IC50 (Stars)", "procedure,_shortened": "(§1)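 Purified serum-derived human C1s (1.16 nM final) preincubated 5 min at room temperature with compound in 50 mM Tris, 1 M NaCl, pH 7.5. Z-L-Lys-SBzl thioester substrate and DTNB added (100 μM each, final); A405 read every 30 s for 30 min. IC50 from nonlinear regression of reaction rates against compound concentration.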", "units": {"IC50": "µM"}}
{"compound": "COC[C@@]1(F)C[C@@H](C(=O)N[C@H](C)c2cc(C(=N)N)cs2)N(C(=O)CNC(=O)c2ccc(Oc3ccccc3)c(C)c2)C1", "note": "[Compound 34, (2S,4R)—N—((R)-1-(4-carbamimidoylthiophen-2-yl)ethyl)-4-fluoro-4-(methoxymethyl)-1-((3-methyl-4-phenoxybenzoyl)glycyl)pyrrolidine-2-carboxamide]", "IC50": "< 0.1"}
{"compound": "COC[C@H]1C[C@@H](C(=O)N[C@H](C)c2cc(C(=N)N)cs2)N(C(=O)CNC(=O)c2ccc(Oc3ccc(F)cc3)cc2)C1", "note": "(relative stereo) [Compound 80, (2S,4S*)—N—((R)-1-(4-carbamimidoylthiophen-2-yl)ethyl)-1-((4-(4-fluorophenoxy)benzoyl)glycyl)-4-(methoxymethyl)pyrrolidine-2-carboxamide]", "IC50": "< 0.1"}
{"compound": "Cc1ccc(Oc2ccc(C(=O)NCC(=O)N3CC4(C[C@H]3C(=O)N[C@H](C)c3cc(C(=N)N)cs3)OCCO4)cc2)cc1", "note": "[Compound 22, (S)—N—((R)-1-(4-carbamimidoylthiophen-2-yl)ethyl)-7-((4-(p-tolyloxy)benzoyl)glycyl)-1,4-dioxa-7-azaspiro[4.4]nonane-8-carboxamide]", "IC50": "< 0.1"}
{"compound": "C[C@@H](NC(=O)[C@@H]1C[C@@H](OC(F)F)CN1C(=O)CNC(=O)c1ccc2c(c1)-c1ccccc1C2(F)F)c1ccc(C(=N)N)s1", "note": "[Compound 30, (2S,4R)—N—((R)-1-(5-carbamimidoylthiophen-2-yl)ethyl)-1-((9,9-difluoro-9H-fluorene-3-carbonyl)glycyl)-4-(difluoromethoxy)pyrrolidine-2-carboxamide]", "IC50": "< 0.1"}
{"compound": "COC[C@@]1(F)C[C@@H](C(=O)N[C@H](C)c2cc(C(=N)N)cs2)N(C(=O)CNC(=O)c2ccc(C(F)(F)c3ccccc3)cc2)C1", "note": "[Compound 136, (2S,4R)—N—((R)-1-(4-carbamimidoylthiophen-2-yl)ethyl)-1-((4-(difluoro(phenyl)methyl)benzoyl)glycyl)-4-fluoro-4-(methoxymethyl)pyrrolidine-2-carboxamide]", "IC50": "< 0.1"}
{"compound": "Cc1ccc(Oc2ccc(C(=O)NCC(=O)N3[C@H]4C[C@@]4(C)C[C@H]3C(=O)N[C@H](C)c3cc(C(=N)N)cs3)cc2C)cc1", "note": "[Compound 25, (1S,3S,5S)—N—((R)-1-(4-carbamimidoylthiophen-2-yl)ethyl)-5-methyl-2-((3-methyl-4-(p-tolyloxy)benzoyl)glycyl)-2-azabicyclo[3.1.]hexane-3-carboxamide]", "IC50": "< 0.1"}
{"compound": "C[C@@H]1C[C@@H](C(=O)N[C@H](C)c2cc(C(=N)N)cs2)N(C(=O)CNC(=O)c2ccc3c(c2)-c2ccccc2C3(F)F)C1", "note": "[Compound 62, (2S,4R)—N—((R)-1-(4-carbamimidoylthiophen-2-yl)ethyl)-1-((9,9-difluoro-9H-fluorene-3-carbonyl)glycyl)-4-methylpyrrolidine-2-carboxamide]", "IC50": "< 0.1"}
{"compound": "Nc1csc(-c2csc(CNC(=O)[C@@H]3CC4(CN3C(=O)CNC(=O)c3ccc(Oc5ccc(F)cc5)cc3)OCCO4)c2)n1", "note": "[Compound 184, (S)—N-((4-(4-aminothiazol-2-yl)thiophen-2-yl)methyl)-7-((4-(4-fluorophenoxy)benzoyl)glycyl)-1,4-dioxa-7-azaspiro[4.4]nonane-8-carboxamide]", "IC50": "> 1"}
{"compound": "C[C@@H](NC(=O)[C@@H]1CC2(CN1C(=O)CNC(=O)c1ccc3c(c1)-c1ccccc1C3(F)F)OCCO2)c1ccc(C(=N)N)s1", "note": "[Compound 56]", "IC50": "< 0.1"}
{"compound": "C[C@@H](NC(=O)[C@@H]1C[C@H](c2nccs2)CN1C(=O)CNC(=O)c1ccc2c(c1)-c1ccccc1C2(F)F)c1cc(C(=N)N)cs1", "note": "[Compound 172, (2S,4S)—N—((R)-1-(4-carbamimidoylthiophen-2-yl)ethyl)-1-((9,9-difluoro-9H-fluorene-3-carbonyl)glycyl)-4-(thiazol-2-yl)pyrrolidine-2-carboxamide]", "IC50": "< 0.1"}
{"compound": "C[C@@H](NC(=O)[C@@H]1CC2(CN1C(=O)CNC(=O)c1ccc3c(c1)-c1ccccc1C3(F)F)OCCO2)c1cc(-c2cncnc2)cs1", "note": "[Compound 91, (S)-7-((9,9-difluoro-9H-fluorene-3-carbonyl)glycyl)-N—((R)-1-(4-(pyrimidin-5-yl)thiophen-2-yl)ethyl)-1,4-dioxa-7-azaspiro[4.4]nonane-8-carboxamide]", "IC50": "> 1"}
{"compound": "C[C@@H](NC(=O)[C@@H]1CC2(CN1C(=O)CNC(=O)c1ccc(-c3cc(F)ccc3F)cc1)OCCO2)c1cc(C(=N)N)cs1", "note": "[Compound 166, (S)—N—((R)-1-(4-carbamimidoylthiophen-2-yl)ethyl)-7-((2′,5′-difluoro-[1,1′-biphenyl]-4-carbonyl)glycyl)-1,4-dioxa-7-azaspiro[4.4]nonane-8-carboxamide]", "IC50": "< 0.1"}
{"biological_target": "Human complement C1s enzyme (Homo sapiens (Human), UniProt P09871)", "assay": "Human C1s enzyme assay", "type": "biochemical", "conditions": "Human complement C1s enzyme 1.16 nM, substrate Z-L-Lys-SBzl 100 μM, assay of Example 3; read-out: IC50 (Stars)", "procedure,_shortened": "as §1", "units": {"IC50": "µM"}}
{"compound": "C=CC(=O)Nc1csc(CNC(=O)[C@@H]2CC3(CN2C(=O)CNC(=O)c2ccc(Oc4ccc(F)cc4)cc2)OCCO3)c1", "note": "[Compound 309, (S)-N-((4-acrylamidothiophen-2-yl)methyl)-7-((4-(4-fluorophenoxy)benzoyl)glycyl)-1,4-dioxa-7-azaspiro[4.4]nonane-8-carboxamide]", "IC50": "> 1"}
{"compound": "NC(=O)Nc1csc(CNC(=O)[C@@H]2CC3(CN2C(=O)CNC(=O)c2ccc(Oc4ccc(F)cc4)cc2)OCCO3)c1", "note": "[Compound 317, (S)-7-((4-(4-fluorophenoxy)benzoyl)glycyl)-N-((4-ureidothiophen-2-yl)methyl)-1,4-dioxa-7-azaspiro[4.4]nonane-8-carboxamide]", "IC50": "> 1"}
{"compound": "C[C@@H](NC(=O)[C@@H]1C[C@@H](OC(F)F)CN1C(=O)CNC(=O)c1cccc(-c2ccc(F)cc2)c1)c1cc(C(=N)N)cs1", "note": "[Compound 330, (2S,4R)—N—((R)-1-(4-carbamimidoylthiophen-2-yl)ethyl)-4-(difluoromethoxy)-1-((4′-fluoro-[1,1′-biphenyl]-3-carbonyl)glycyl)pyrrolidine-2-carboxamide]", "IC50": "< 0.1"}
{"compound": "N=C(N)c1csc(CNC(=O)[C@@H]2CC3(CN2C(=O)CNC(=O)c2ccc(-c4cc(Cl)cc(Cl)c4)cc2)OCCO3)c1", "note": "[Compound 208, (S)—N-((4-carbamimidoylthiophen-2-yl)methyl)-7-((3′,5′-dichloro-[1,1′-biphenyl]-4-carbonyl)glycyl)-1,4-dioxa-7-azaspiro[4.4]nonane-8-carboxamide]", "IC50": "< 0.1"}
{"compound": "N=C(N)c1csc([C@H](NC(=O)[C@@H]2CC3(CN2C(=O)CNC(=O)c2ccc4c(c2)-c2ccccc2C4(F)F)OCCO3)C(F)(F)F)c1", "note": "(single isomer, unassigned) [Compound 246, (S)—N—((R*)-1-(4-carbamimidoylthiophen-2-yl)-2,2,2-trifluoroethyl)-7-((9,9-difluoro-9H-fluorene-3-carbonyl)glycyl)-1,4-dioxa-7-azaspiro[4.4]nonane-8-carboxamide]", "IC50": "< 0.1"}
{"compound": "C[C@@H](NC(=O)c1ccc(-c2ccc(F)cc2F)cc1)C(=O)N1CC2(C[C@H]1C(=O)NCc1cc(C(=N)N)cs1)OCCO2", "note": "[Compound 301, (S)—N-((4-carbamimidoylthiophen-2-yl)methyl)-7-((2′,4′-difluoro-[1,1′-biphenyl]-4-carbonyl)-D-alanyl)-1,4-dioxa-7-azaspiro[4.4]nonane-8-carboxamide]", "IC50": "< 0.1"}
{"compound": "CC1c2ccccc2-c2ccc(C(=O)NCC(=O)N3C[C@H](S(C)(=O)=O)C[C@H]3C(=O)N[C@H](C)c3cc(C(=N)N)cs3)cc21", "note": "(stereo partly drawn) [Compound 390, (2S,4R)—N—((R)-1-(4-carbamimidoylthiophen-2-yl)ethyl)-1-((9-methyl-9H-fluorene-2-carbonyl)glycyl)-4-(methylsulfonyl)pyrrolidine-2-carboxamide]", "IC50": "< 0.1"}
{"compound": "C[C@@H](NC(=O)[C@@H]1C[C@]2(CN(C)C)C[C@@H]2N1C(=O)CNC(=O)c1ccc2c(c1)-c1ccccc1C2(F)F)c1cc(C(=N)N)cs1", "note": "[Compound 304, (1S,3S,5S)—N—((R)-1-(4-carbamimidoylthiophen-2-yl)ethyl)-2-((9,9-difluoro-9H-fluorene-3-carbonyl)glycyl)-5-((dimethylamino)methyl)-2-azabicyclo[3.1.0]hexane-3-carboxamide]", "IC50": "< 0.1"}
{"compound": "Nc1csc(CNC(=O)[C@@H]2CC3(CN2C(=O)CNC(=O)c2ccc(Oc4ccc(F)cc4)cc2)OCCO3)c1", "note": "[Compound 244, (S)—N-((4-aminothiophen-2-yl)methyl)-7-((4-(4-fluorophenoxy)benzoyl)glycyl)-1,4-dioxa-7-azaspiro[4.4]nonane-8-carboxamide]", "IC50": "> 1"}
{"compound": "C[C@@H](NC(=O)[C@@H]1C[C@H](c2ccncc2)CN1C(=O)CNC(=O)c1ccc2c(c1)-c1ccccc1C2(F)F)c1cc(C(=N)N)cs1", "note": "[Compound 370, (2S,4R)—N—((R)-1-(4-carbamimidoylthiophen-2-yl)ethyl)-1-((9,9-difluoro-9H-fluorene-3-carbonyl)glycyl)-4-(pyridin-4-yl)pyrrolidine-2-carboxamide]", "IC50": "< 0.1"}
{"compound": "C[C@@H](NC(=O)[C@@H]1CC2(CN1C(=O)CCC(=O)c1ccc(-c3ccccc3)cc1)OCCO2)c1cc(C(=N)N)cs1", "note": "[Compound 345, (S)-7-(4-([1,1′-biphenyl]-4-yl)-4-oxobutanoyl)-N—((R)-1-(4-carbamimidoylthiophen-2-yl)ethyl)-1,4-dioxa-7-azaspiro[4.4]nonane-8-carboxamide]", "IC50": "< 0.1"}
{"biological_target": "Human complement C1s enzyme (Homo sapiens (Human), UniProt P09871)", "assay": "Human C1s enzyme assay", "type": "biochemical", "conditions": "Human complement C1s enzyme 1.16 nM, substrate Z-L-Lys-SBzl; assay of Example 3; read-out: IC50 (Stars)", "procedure,_shortened": "as §1", "units": {"IC50": "µM"}}
{"compound": "C[C@@H](NC(=O)[C@@H]1C[C@]2(Cc3ncno3)C[C@@H]2N1C(=O)CNC(=O)c1ccc2c(c1)-c1ccccc1C2(F)F)c1cc(C(=N)N)cs1", "note": "[Compound 420, (1S,3S,5S)-5-((1,2,4-oxadiazol-5-yl)methyl)-N—((R)-1-(4-carbamimidoylthiophen-2-yl)ethyl)-2-((9,9-difluoro-9H-fluorene-3-carbonyl)glycyl)-2-azabicyclo[3.1.0]hexane-3-carboxamide]", "IC50": "< 0.1"}
{"compound": "CC1c2ccccc2-c2cc(C(=O)NCC(=O)N3C[C@H](S(C)(=O)=O)C[C@H]3C(=O)N[C@H](C)c3cc(C(=N)N)cs3)ccc21", "note": "(stereo partly drawn) [Compound 419, (2S,4R)—N—((R)-1-(4-carbamimidoylthiophen-2-yl)ethyl)-1-((9-methyl-9H-fluorene-3-carbonyl)glycyl)-4-(methylsulfonyl)pyrrolidine-2-carboxamide]", "IC50": "< 0.1"}
